Source: patent publication US20260365670A1, “EGFR INHIBITORS AND USES THEREOF” (DIZAL (JIANGSU) PHARMACEUTICAL CO., LTD., priority 2022, published 2026)
Where two headings read alike, the source gives them in different places.

Columns and labels:
[1] = tested on: Ba/F3 cells expressing EGFR mutations; assay: Cell proliferation assay, Ba/F3 cells expressing EGFR mutations (CellTiter-Glo, 72 hours); assay type: cell-based; settings: CellTiter-Glo
Outline: (§1)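 GI50 is the concentration giving 50% proliferation inhibition. Growth for this was normalised to a baseline viability reading taken when compound was added, and to DMSO wells. PC-9 (500 cells/well) and mutant-EGFR Ba/F3 (5000 cells/well) are treated after overnight seeding in RPMI1640-based medium.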

EGFR (d746-750 C797S) = target: T1, EGFR (d746-750 C797S) (Homo sapiens, UniProt P00533, C797S/DEL746-750); assay: Inhibition of EGFR (d746-750 C797S) biochemical enzymatic activity (HTRF); settings: EGFR Del19-C797S, 1 mM ATP, 1 h, room temperature, read-out: IC50 (nM) @Del19-C797S
T1 construct: purchased signalchem
Outline: (§2)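 Following 1 h at room temperature with titrated compound, 1 mM ATP and 1 μM biotin-TK peptide (Mg2+/Mn2+, CHAPS, DTT, 0.5% DMSO buffer), EDTA-containing detection reagent terminated each enzyme reaction. Time-resolved fluorescence (ex 320, em 665/615 nm) ratio tracked activity. IC50 values came from four-parameter fits.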

EGFR Exon19Del = target: T2, EGFR Exon19Del (Homo sapiens, UniProt P00533, DEL746-750); assay: Inhibition of EGFR Exon19Del biochemical enzymatic activity (HTRF); settings: EGFR Del19, 1 mM ATP, 1 h, room temperature, read-out: IC50 @Del19
T2 construct: purchased Carna Bio
Outline: as §2

[2] = target: T3, EGFR[T790M/C797S/d746-750] (Homo sapiens, UniProt P00533, C797S/DEL746-750/T790M); assay: Inhibition of EGFR[T790M/C797S/d746-750] biochemical enzymatic activity (HTRF); settings: EGFR T790M-C797S-Del19, 1 mM ATP, 1 h, room temperature, read-out: IC50 (nM) @T790M - C797S - Del19
T3 construct: purchased Carna Bio
Outline: as §2

EGFR wild type = target: T4, EGFR wild type (Homo sapiens, UniProt P00533); assay: Inhibition of EGFR wild type biochemical enzymatic activity (HTRF); settings: EGFR WT, 1 mM ATP, 1 h, room temperature, read-out: IC50 (nM) @WT
T4 construct: purchased Carna Bio
Outline: as §2

EGFR (C797S L858R) = target: T5, EGFR (C797S L858R) (Homo sapiens, UniProt P00533, C797S/L858R); assay: Inhibition of EGFR (C797S L858R) biochemical enzymatic activity (HTRF); settings: EGFR L858-C797S, 1 mM ATP, 1 h, room temperature, read-out: IC50 (nM) @L858-C797S
T5 construct: purchased signalchem
Outline: as §2

PC-9 = assay: Cell proliferation assay, PC-9 cells (CellTiter-Glo, 72 hours); assay type: cell-based; settings: PC9 cells, CellTiter-Glo, read-out: PC9 GI50
Outline: as §1

EGFR Exon19Del/T790M = target: T6, EGFR Exon19Del/T790M (Homo sapiens, UniProt P00533, DEL746-750/T790M); assay: Inhibition of EGFR Exon19Del/T790M biochemical enzymatic activity (HTRF); settings: EGFR Del19-T790M, 1 mM ATP, 1 h, room temperature, read-out: IC50 (nM) @Del19-T790M
T6 construct: purchased Carna Bio
Outline: as §2

EGFR[T790M/C797S/L858R] = target: T7, EGFR[T790M/C797S/L858R] (Homo sapiens, UniProt P00533, C797S/L858R/T790M); assay: Inhibition of EGFR[T790M/C797S/L858R] biochemical enzymatic activity (HTRF); settings: EGFR T790M-C797S-L858R, 1 mM ATP, 1 h, room temperature, read-out: IC50 (nM) @T790M- C797S - L858R
T7 construct: purchased Carna Bio
Outline: as §2

EGFR L858R/T790M = target: T8, EGFR L858R/T790M (Homo sapiens, UniProt P00533, L858R/T790M); assay: Inhibition of EGFR L858R/T790M biochemical enzymatic activity (HTRF); settings: EGFR L858R-T790M, 1 mM ATP, 1 h, room temperature, read-out: IC50 (nM) @L858R-T790M
T8 construct: purchased Carna Bio
Outline: as §2

EGFR L858R = target: T9, EGFR L858R (Homo sapiens, UniProt P00533, L858R); assay: Inhibition of EGFR L858R biochemical enzymatic activity (HTRF); settings: 1 mM ATP, 1 h, room temperature, read-out: IC50 (nM) @L858R
T9 construct: purchased Carna Bio
Outline: as §2

A-431 = assay: Cell proliferation GI50, A-431 cells (Table 6); assay type: cell-based
[3] = Mus musculus, BaF3, 72 h, BaF3 cells, EGFR DEL19-C797S, read-out: DEL19-C797S/BaF3 GI50
[4] = Mus musculus, BaF3, 72 h, BaF3 cells, EGFR DEL19-T790-C797S, read-out: DEL19-T790-C797S/BaF3 GI50
[5] = Mus musculus, BaF3, 72 h, BaF3 cells, EGFR L858R, read-out: L858R/BaF3 GI50
[6] = Mus musculus, BaF3, 72 h, BaF3 cells, EGFR L858R-C797S, read-out: L858R-C797S/BaF3 GI50
[7] = Mus musculus, BaF3, 72 h, BaF3 cells, EGFR L858R-T790-C797S, read-out: L858R-T790-C797S/BaF3 GI50
[8] = Mus musculus, BaF3, 72 h, BaF3 cells, EGFR L858R-T790M, read-out: L858R-T790M/BaF3 GI50
[9] = Mus musculus, BaF3, 72 h, EGFR DEL19-T790M, read-out: DEL19-T790M GI50
[10] = Homo sapiens, A-431, A-431 cells

T2 sequence (P00533 with tags, fused parts or gaps DEL746-750 limits assumed): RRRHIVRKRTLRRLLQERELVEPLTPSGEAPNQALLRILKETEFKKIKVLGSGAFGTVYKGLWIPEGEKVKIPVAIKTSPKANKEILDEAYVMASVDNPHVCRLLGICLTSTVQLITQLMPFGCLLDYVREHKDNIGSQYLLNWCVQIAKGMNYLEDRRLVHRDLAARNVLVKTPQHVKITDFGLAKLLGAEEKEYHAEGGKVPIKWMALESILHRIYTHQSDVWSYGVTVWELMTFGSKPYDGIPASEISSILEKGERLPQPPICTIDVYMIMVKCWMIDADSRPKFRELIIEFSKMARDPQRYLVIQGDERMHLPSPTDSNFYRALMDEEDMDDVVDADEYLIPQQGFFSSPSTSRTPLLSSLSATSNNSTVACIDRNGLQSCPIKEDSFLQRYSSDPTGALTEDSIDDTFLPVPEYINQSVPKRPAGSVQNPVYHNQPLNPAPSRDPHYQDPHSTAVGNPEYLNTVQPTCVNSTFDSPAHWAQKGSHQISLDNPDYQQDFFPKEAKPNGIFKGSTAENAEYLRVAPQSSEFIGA
T4 sequence (P00533 25-1210): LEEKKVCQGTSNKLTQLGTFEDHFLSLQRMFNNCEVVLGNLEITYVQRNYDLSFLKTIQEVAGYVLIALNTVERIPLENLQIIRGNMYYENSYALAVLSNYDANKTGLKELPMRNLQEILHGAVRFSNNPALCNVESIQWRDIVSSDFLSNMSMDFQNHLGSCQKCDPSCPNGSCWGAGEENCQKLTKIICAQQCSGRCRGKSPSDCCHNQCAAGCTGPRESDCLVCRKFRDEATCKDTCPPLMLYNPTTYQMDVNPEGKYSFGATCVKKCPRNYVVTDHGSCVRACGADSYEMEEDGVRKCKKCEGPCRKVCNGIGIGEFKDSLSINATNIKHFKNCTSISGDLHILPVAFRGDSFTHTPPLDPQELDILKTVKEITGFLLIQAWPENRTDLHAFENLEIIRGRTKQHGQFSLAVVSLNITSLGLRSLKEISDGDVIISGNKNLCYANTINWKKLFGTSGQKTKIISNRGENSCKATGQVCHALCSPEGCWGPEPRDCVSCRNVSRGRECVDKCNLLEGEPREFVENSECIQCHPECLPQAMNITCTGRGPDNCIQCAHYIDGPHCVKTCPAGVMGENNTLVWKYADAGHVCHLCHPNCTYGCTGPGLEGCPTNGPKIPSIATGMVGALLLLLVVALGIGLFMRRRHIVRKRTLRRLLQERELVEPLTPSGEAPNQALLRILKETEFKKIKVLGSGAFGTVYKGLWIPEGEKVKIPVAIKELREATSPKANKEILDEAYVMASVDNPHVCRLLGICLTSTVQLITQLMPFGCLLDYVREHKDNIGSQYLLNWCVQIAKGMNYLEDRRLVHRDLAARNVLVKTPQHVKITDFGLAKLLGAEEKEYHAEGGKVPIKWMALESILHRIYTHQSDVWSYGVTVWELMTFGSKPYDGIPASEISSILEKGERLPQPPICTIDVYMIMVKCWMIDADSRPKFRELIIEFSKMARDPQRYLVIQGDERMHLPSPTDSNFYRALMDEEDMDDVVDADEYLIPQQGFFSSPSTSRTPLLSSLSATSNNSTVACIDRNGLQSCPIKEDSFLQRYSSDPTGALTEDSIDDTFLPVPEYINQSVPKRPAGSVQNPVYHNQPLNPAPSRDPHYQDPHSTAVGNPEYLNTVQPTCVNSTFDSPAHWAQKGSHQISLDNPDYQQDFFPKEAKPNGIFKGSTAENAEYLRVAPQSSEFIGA
T9 sequence (P00533 25-1210 L858R): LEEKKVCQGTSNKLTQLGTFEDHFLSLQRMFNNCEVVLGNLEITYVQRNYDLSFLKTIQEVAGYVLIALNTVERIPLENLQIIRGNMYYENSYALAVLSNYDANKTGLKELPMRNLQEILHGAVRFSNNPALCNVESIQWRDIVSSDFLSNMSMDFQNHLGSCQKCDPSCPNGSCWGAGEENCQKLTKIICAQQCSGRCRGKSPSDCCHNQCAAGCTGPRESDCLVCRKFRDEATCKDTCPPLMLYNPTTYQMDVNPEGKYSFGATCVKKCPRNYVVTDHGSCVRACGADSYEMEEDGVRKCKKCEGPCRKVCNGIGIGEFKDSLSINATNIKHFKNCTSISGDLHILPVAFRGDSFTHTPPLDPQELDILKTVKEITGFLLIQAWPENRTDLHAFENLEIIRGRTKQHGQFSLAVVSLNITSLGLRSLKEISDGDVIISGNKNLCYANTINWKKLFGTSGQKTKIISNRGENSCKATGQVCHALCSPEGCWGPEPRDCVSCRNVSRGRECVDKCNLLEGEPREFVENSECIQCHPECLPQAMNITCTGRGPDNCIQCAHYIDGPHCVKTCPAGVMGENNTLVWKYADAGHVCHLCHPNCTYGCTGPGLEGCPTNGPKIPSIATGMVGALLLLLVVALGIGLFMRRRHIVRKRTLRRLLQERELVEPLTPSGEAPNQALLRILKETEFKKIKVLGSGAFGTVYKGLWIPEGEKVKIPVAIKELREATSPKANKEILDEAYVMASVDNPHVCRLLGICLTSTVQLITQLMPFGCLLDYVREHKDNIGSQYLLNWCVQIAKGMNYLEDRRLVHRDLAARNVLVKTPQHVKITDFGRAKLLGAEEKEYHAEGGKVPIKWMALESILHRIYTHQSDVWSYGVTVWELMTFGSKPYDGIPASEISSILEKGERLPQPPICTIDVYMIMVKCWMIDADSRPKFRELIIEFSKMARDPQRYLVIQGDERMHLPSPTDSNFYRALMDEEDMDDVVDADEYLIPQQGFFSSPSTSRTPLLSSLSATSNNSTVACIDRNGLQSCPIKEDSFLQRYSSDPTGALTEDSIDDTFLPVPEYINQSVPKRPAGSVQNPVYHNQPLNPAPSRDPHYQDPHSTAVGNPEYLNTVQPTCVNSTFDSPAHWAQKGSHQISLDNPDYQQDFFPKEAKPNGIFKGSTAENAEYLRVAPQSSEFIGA
T3 sequence (P00533 with tags, fused parts or gaps DEL746-750/T790M/C797S limits assumed): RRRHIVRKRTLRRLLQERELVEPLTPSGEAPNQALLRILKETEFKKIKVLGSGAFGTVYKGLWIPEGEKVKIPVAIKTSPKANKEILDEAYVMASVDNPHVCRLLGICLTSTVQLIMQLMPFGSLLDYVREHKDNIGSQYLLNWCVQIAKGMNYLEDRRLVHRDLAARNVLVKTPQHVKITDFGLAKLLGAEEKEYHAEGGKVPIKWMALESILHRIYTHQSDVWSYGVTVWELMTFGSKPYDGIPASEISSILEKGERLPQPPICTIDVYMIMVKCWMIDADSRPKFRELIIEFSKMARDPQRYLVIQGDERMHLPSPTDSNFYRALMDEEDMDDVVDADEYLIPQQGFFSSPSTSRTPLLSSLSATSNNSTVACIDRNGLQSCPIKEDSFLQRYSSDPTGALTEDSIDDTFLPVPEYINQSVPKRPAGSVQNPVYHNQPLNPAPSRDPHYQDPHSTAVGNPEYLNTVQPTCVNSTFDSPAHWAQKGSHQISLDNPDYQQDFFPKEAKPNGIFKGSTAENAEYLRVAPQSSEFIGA
T1 sequence (P00533 with tags, fused parts or gaps DEL746-750/C797S limits assumed): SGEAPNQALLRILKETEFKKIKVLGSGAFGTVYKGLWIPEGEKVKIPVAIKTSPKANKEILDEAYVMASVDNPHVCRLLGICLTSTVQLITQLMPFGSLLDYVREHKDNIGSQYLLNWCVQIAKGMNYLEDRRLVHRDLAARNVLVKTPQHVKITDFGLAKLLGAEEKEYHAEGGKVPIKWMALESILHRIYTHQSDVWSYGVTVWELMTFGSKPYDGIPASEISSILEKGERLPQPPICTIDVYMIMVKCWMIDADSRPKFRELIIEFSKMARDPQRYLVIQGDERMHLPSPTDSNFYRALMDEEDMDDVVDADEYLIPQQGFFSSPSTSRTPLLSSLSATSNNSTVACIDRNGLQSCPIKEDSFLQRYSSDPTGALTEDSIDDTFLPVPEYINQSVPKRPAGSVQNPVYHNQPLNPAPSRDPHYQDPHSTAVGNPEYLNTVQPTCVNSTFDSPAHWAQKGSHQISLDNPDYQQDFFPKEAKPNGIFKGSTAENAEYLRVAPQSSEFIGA
T6 sequence (P00533 with tags, fused parts or gaps DEL746-750/T790M limits assumed): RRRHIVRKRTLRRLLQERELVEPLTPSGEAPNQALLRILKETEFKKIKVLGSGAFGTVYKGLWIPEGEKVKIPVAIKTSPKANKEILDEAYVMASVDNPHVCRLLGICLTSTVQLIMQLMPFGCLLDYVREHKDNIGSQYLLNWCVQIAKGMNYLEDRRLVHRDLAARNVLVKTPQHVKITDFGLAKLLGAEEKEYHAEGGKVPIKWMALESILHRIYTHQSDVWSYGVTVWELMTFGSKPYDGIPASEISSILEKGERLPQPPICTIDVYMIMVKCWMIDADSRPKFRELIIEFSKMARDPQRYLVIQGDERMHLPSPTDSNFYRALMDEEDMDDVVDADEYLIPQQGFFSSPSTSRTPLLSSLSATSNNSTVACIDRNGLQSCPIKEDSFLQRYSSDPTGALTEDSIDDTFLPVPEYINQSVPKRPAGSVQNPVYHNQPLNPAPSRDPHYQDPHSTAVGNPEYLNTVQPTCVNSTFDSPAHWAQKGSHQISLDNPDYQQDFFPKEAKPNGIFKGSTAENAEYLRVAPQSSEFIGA

Compound	GI50 [1, 3] [nM]	GI50 [1, 4] [nM]	GI50 [1, 5] [nM]	GI50 [1, 6] [nM]	GI50 [1, 7] [nM]	GI50 [1, 8] [nM]	GI50 [1, 9] [nM]	IC50 (EGFR (d746-750 C797S)) [nM]	IC50 (EGFR Exon19Del) [nM]	IC50 [2] [nM]	IC50 (EGFR wild type) [nM]	IC50 (EGFR (C797S L858R)) [nM]	GI50 (PC-9; Homo sapiens, PC-9, 72 h) [nM]	IC50 (EGFR Exon19Del/T790M) [nM]	IC50 (EGFR[T790M/C797S/L858R]) [nM]	IC50 (EGFR L858R/T790M) [nM]	IC50 (EGFR L858R) [nM]	GI50 (A-431; [10]) [nM]	other results
C[C@@H]1CCCOc2c(cnn2C)-c2cc(cn(C)c2=O)C(=O)Nc2nc3ccc(N4CCN(C)CC4)c(Cl)c3n2C1 [Example A101, (11R)-15-Chloro-5,11,26-trimethyl-16-(4-methylpiperazin-1-yl)-7-oxa-4,5,13,20,22,26-hexaazapentacyclo[22.3.1.0^{2,6}.0^{13,21}.0^{14,19}]octacosa-1(28),2(6),3,14,16,18,20,24-octaene-23,27-dione]	8.1	58	68	31	57	260	92	2.3	3.5	1.8	> 5000	47	128	2.3	3.2	7.4	212	1410	
C[C@@H]1CCCOc2c(cnn2C)-c2cc(cn(C)c2=O)C(=O)Nc2nc3ccc(N4CC(N(C)C)C4)cc3n2C1 [Example A37]	0.7	3.3	3.2	3.8	2.5	10	5.5	1.7	3.4	1.2	281	13	4.3	1.4	2.3	6.5	40	166	
C[C@@H]1CCCOc2c(cnn2C)-c2cc(cn(C)c2=O)C(=O)Nc2nc3ccc(N(C)CCN(C)C)cc3n2C1 [Example A36]	2.1	6	5.1	5.9	4.7	23	7.8	2.1	3	2.4	193	14	14	2.5	4.9	8	30	591	
C[C@@H]1CCCOc2c(cnn2C)-c2cc(cn(C)c2=O)C(=O)Nc2nc3ccc(N4CCC(N(C)C)C4)cc3n2C1 (stereo partly drawn) [Example A27, (11R)-16-[3-(Dimethylamino)pyrrolidin-1-yl]-5,11,26-trimethyl-7-oxa-4,5,13,20,22,26-hexaazapentacyclo[22.3.1.0^{2,6}.0^{13,21}.0^{14,19}]octacosa-1(28),2(6),3,14,16,18,20,24-octaene-23,27-dione]	1.2	1.9	3	7.1	2.2	6.8	3.5	5.5	6.1	13	290	21	21	15	20	26	25	453	
CN1CCN(C2CCN(c3ccc4nc5n(c4c3)C34CCC(CN(CCOc6c(cnn6C)-c6cc(cn(C)c6=O)C(=O)N5)C3)C4)CC2)CC1 (single isomer, unassigned) [Example A106A]								446	594	2820	> 5000	> 5000		> 5000	> 5000	> 5000	1750		GI50 ([1]; BaF3 cells, EGFR DEL19-C797S, read-out: DEL19-C797S/BaF3 GI50): 113 nM; GI50 ([1]; BaF3 cells, EGFR DEL19-T790-C797S, read-out: DEL19-T790-C797S/BaF3 GI50): 322 nM; GI50 ([1]; BaF3 cells, EGFR L858R, read-out: L858R/BaF3 GI50): 268 nM; GI50 ([1]; BaF3 cells, EGFR L858R-C797S, read-out: L858R-C797S/BaF3 GI50): 143 nM; GI50 ([1]; BaF3 cells, EGFR L858R-T790-C797S, read-out: L858R-T790-C797S/BaF3 GI50): 316 nM; GI50 ([1]; BaF3 cells, EGFR L858R-T790M, read-out: L858R-T790M/BaF3 GI50): 392 nM; GI50 ([1]; EGFR DEL19-T790M, read-out: DEL19-T790M GI50): 355 nM; GI50 (PC-9): 418 nM; GI50 (A-431; A-431 cells): 2500 nM
C[C@@H]1CCCOc2c(cnn2C)-c2cc(cn(C)c2=O)C(=O)Nc2nc3ccc(N4CCC(N5CCN(C)CC5)CC4)cc3n2C1 [Example A29]	0.41	1	2.1	2.8	0.78	2.5	1.9	2.1	3.8	8.2	109	7.9	7.1	7.6	8.9	15	14	247	
